Experimental data as given in publication PMC9046208, “Foldamers reveal and validate therapeutic targets associated with toxic α-synuclein self-assembly” (Nature Communications, 2022).

How the values were obtained:
[1] = test system: SH-SY5Y cells; assay: MTT cytotoxicity assay, SH-SY5Y cells; type: cell-based; settings: 24 h, αS alone 48 ± 3%
Method: An MTT assay was conducted to assess the effect of SK-129 on the cytotoxicity mediated by αS aggregation in SH-SY5Y cells. The cells were cultured in phenol red-free Dulbeco’s Modified Eagle Medium (DMEM) with 10% Fetal Bovine Serum (FBS) and 1% penicillin-streptomycin (Pen/strep) at 37 °C and 5% CO2(g). The cells were plated in a clear, flat bottom 96-well cell culture plate (Costar, Kennebunk, ME) using a density of 10,000 cells per well with more than 90% cell viability. After incubating for 24 h, the media was aspirated, and 100 µL of fresh OptiMEM (Fisher Scientific, Pittsburgh, PA) was added, […] of various ligands at various stoichiometric ratios. The samples were then incubated for an additional 24 h at 37 °C and 5% CO2(g), followed by the addition of MTT dye (10 µL per well, prepared in 1x PBS buffer, 5 mg/mL). The plates were covered in aluminum foil and incubated again for 3 h. The solution in each well was carefully removed without disturbing the formazan crystals and replaced with 100 µL of DMSO to dissolve the formazan crystals. Subsequently, the plate was shaken in a 96-well plate reader for 5 min before measuring the absorbance at 570 nm. The cell viability was reported on a scale of 100%, using the control wells with regular media as 100% viability and the wells with 10% DMSO (v/v) as 0% viability.

[2] = biological target: T1, αS aggregation (Homo sapiens, UniProt P37840); assay: ThT aggregation kinetic assay, de novo, WT αS; type: biochemical; settings: 100 μM analog, 100 μM αS
T1 construct: made in house; host or cells: Escherichia coli BL21(DE3), periplasm
Method: (§1) The aggregation kinetics of αS was monitored using ThT fluorescence assay (λex = 450 nm and λem = 485 nm). To study the aggregation kinetics of αS, the ThT dye at a final concentration of 50 μM was added to 100 μM αS solution in the aggregation buffer (1 x PBS buffer) with and without various concentrations of SK-129 in a Costar black 96–well plate (Corning Inc., Kennebunk, ME). The small molecules were dissolved in dimethyl sulfoxide (DMSO; final DMSO concentration = 0.5%, v/v). The final volume in each well was 140 μL. The plate was incubated at 37 °C with 16 min shaking (434 rpm) and 44 min without shaking in an Infinite M200PRO plate reader (Tecan, Männedorf, Switzerland) and fluorescence was recorded after every hour. We used two methods to quantify the effect of molecules on the aggregation of αS; either we have reported the t50 (time required to reach 50% fluorescence of ThT), which was extracted by fitting the ThT curve as a sigmoidal fit or the absolute ThT fluorescence intensity was reported. […] In the second method, we determined the final ThT fluorescence intensity for the aggregation of αS/Aβ42(with or without ligands) as an average of three separate experiments. […]
The aggregation kinetics of WT αS and αS variants were monitored and was carried out with a slightly modified protocol. […] The aggregation of proteins was monitored at the indicated times (See the main manuscript). […]

[3] = biological target: T2, αS aggregation in the presence of LUVs (DOPS) (Homo sapiens, UniProt P37840); assay: Lipid (LUVs, DOPS) catalyzed αS aggregation, ThT; type: biochemical; settings: equimolar ratio
T2 construct: made in house; host or cells: Escherichia coli BL21(DE3), periplasm
Method: as §1
lipid-free and lipid-catalyzed aggregation of αS was monitored after 7 days. […]
equimolar ratio after four days. The data were expressed as mean and the error bars report the […]

antagonist activity against αS aggregation among analogs [2]: most potent antagonist | effect on lipid catalyzed aggregation of αS [3]: wholly inhibited
Structure (SMILES): COC(=O)c1cc(OCC(=O)O)c2cccc(NC(=O)c3cc(OC(C)C)c4cccc(NC(=O)c5cc(OCC(=O)O)c6cccc(NC(=O)c7cc(OC(C)C)c8cccc([N+](=O)[O-])c8n7)c6n5)c4n3)c2n1 [SK-129]
viability of SH-SY5Y cells ([1]; 10 μM αS aggregated with SK-129, 1:0.1 (αS:SK-129)): 91 ± 4% | viability of SH-SY5Y cells ([1]; 10 μM αS aggregated with SK-129, 1:1 (αS:SK-129)): 97 ± 4%
